ChEMBL document CHEMBL5614441, “Anticancer potential of active alkaloids and synthetic analogs derived from marine invertebrates” (Eur J Med Chem, 2024)
Each block holds one compound with its values, some of them ahead of it.

Tests used:
[1] = biological target: Hepatocyte growth factor receptor (Homo sapiens, UniProt P08581); experiment: Inhibition of c-Met phosphorylation in human BT-474 cells using Z-LYTE Tyr6 peptide substrate measured after 1 hr incubation by Z-LYTE c-Met Kinase assay; type: cell-based
[2] = system: BT-474; experiment: Anticancer activity against human BT-474 cells assessed as cell viability measured after 48 hrs by MTT assay; type: functional, cell-based; settings: BT-474, 48 h
[3] = system: SW-620; experiment: Cytotoxicity against human SW620 cells assessed as cell growth measured after 24 hrs incubation by Sulforhodamine B (SRB) assay; type: functional, cell-based; settings: SW-620, 24 h
[4] = system: SW480; experiment: Cytotoxicity against human SW480 cells assessed as cell growth measured after 24 hrs incubation by Sulforhodamine B (SRB) assay; type: functional, cell-based; settings: SW480, 24 h
[5] = system: MCF7; experiment: Cytotoxicity against human MCF7 cells assessed as cell viability measured after 48 hrs by MTT cell proliferation assay; type: functional, cell-based; settings: MCF7, 48 h
[6] = system: CWR22R; experiment: Cytotoxicity against human 22Rv1 cells assessed as cell viability measured after 48 hrs incubation by MTT assay; type: functional, cell-based; settings: 22Rv1, 48 h
[7] = Cytotoxicity against p53-/- transgenic mouse derived T11 cells assessed as cell viability measured after 48 hrs by Cell Titer Glo assay; type: functional, cell-based; settings: T11, 48 h
[8] = system: MCF7; experiment: Cytotoxicity against human MCF7 cells assessed as cell killing by SRB colorimetric assay; type: functional, cell-based
[9] = system: NCI-H292; experiment: Cytotoxicity against human NCI-H292 cells; type: functional, cell-based
[10] = system: NCI-H460; experiment: Cytotoxicity against human NCI-H460 cells; type: functional, cell-based
[11] = system: MDA-MB-231; experiment: Cytotoxicity against human MDA-MB-231 cells measured after 24 to 72 hrs by MTT cell proliferation assay; type: functional, cell-based
[12] = system: A549; experiment: Cytotoxicity against human A549 cells assessed as cell viability measured after 24 hrs incubation by MTT assay; type: functional, cell-based; settings: A549, 24 h
[13] = system: PC-3; experiment: Antiproliferative activity against human PC-3 cells assessed as inhibition of cell proliferation measured after 2 to 4 hrs incubation by MTT assay; type: functional, cell-based
[14] = system: DU-145; experiment: Antiproliferative activity against human DU-145 cells assessed as inhibition of cell proliferation measured after 2 to 4 hrs incubation by MTT assay; type: functional, cell-based
[15] = system: HCT-116; experiment: Antiproliferative activity against human HCT116 cells assessed as inhibition of cell proliferation measured after 2 to 4 hrs incubation by MTT assay; type: functional, cell-based
[16] = system: PC-3; experiment: Cytotoxicity against human PC-3 cells assessed as cell viability measured after 24 hrs incubation followed by incubated 3 hrs with MTS reagent by MTS assay; type: functional, cell-based
[17] = system: CWR22R; experiment: Cytotoxicity against human 22Rv1 cells assessed as cell viability measured after 24 hrs incubation followed by incubated 3 hrs with MTS reagent by MTS assay; type: functional, cell-based
[18] = system: MDA-MB-231; experiment: Cytotoxicity against human MDA-MB-231 cells assessed as cell growth inhibition incubated for 72 hrs by alamarblue staining based assay; type: functional; settings: MDA-MB-231, 72 h
[19] = system: MDA-MB-231; experiment: Cytotoxicity against human MDA-MB-231 cells assessed as cell viability measured after 48 hrs by MTT assay; type: functional, cell-based; settings: MDA-MB-231, 48 h

Hepatocyte growth factor receptor, sequence (P08581 whole entry): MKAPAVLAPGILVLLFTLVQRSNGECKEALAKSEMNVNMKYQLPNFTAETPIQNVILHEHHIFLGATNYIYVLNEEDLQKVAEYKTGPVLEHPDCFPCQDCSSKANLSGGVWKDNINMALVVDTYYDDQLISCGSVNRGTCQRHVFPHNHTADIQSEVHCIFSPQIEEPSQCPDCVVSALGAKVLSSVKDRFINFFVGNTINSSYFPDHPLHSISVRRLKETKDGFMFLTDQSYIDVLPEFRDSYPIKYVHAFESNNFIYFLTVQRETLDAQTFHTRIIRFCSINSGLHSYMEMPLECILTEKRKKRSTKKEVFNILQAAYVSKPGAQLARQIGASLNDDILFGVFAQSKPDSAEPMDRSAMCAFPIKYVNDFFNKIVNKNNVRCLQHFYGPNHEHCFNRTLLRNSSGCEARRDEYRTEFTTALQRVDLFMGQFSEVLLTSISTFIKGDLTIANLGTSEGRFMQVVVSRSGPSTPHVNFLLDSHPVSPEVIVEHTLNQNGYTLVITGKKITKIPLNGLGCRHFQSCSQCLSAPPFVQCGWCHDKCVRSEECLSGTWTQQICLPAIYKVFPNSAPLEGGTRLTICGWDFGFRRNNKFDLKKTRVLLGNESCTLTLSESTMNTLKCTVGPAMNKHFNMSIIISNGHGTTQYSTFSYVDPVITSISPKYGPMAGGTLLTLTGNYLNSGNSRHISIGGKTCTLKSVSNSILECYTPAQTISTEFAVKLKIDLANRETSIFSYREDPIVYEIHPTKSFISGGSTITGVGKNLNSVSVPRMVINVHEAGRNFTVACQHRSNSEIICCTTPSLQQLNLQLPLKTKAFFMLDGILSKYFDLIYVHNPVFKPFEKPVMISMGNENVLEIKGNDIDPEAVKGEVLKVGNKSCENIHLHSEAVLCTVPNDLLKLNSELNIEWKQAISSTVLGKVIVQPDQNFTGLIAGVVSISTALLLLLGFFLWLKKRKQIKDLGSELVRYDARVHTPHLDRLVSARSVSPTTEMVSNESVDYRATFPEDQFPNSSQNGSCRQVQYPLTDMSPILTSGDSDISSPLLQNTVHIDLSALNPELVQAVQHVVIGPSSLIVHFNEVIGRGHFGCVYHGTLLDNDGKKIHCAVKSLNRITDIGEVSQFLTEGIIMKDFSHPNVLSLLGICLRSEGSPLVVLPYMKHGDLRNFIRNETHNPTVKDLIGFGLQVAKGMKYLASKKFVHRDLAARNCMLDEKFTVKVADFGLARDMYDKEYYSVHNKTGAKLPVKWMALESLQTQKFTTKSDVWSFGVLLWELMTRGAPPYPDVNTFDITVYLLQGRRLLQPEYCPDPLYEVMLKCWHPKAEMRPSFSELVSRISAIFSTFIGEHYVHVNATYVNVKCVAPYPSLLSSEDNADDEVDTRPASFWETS

IC50 [1]: 19.9 µM
IC50 [2]: 15.2 µM
SMILES: [O-][N+]12CCC[C@]3(O)CCCCCC[C@H]4CCN5CCC[C@@H](CCCCCC[C@@H](CC1)O[C@@H]32)[C@@H]5O4 (some centres not stated)

SMILES: Cn1ccc2c(c1=O)C(=O)c1nccc3c1c-2nc1ccccc13 [NEOAMPHIMIDINE]
IC50 [3]: 0.06 µM
IC50 [4]: 0.006 µM

SMILES: Cn1c2ccccc2c2cc(C3=NCCc4c3[nH]c3ccccc43)ccc21
IC50 [5]: 5.48 µM

SMILES: CCC/C=C\CC[C@@H](O)C[C@H]1CCC2=C(C(=O)OCCCCN(O)C(=N)N)[C@H](CC/C=C\CCC)NC(=N)N21
IC50 [6]: 5 µM

SMILES: CC[C@H]1C=CCC[C@@]2(C[C@@H]3CC[C@@H]4[C@H](C(=O)OCCCCCCCCCCCCCCCC(=O)N(CCCN)C[C@@H](O)CCN)[C@]5(CCC[C@@H](C)O5)NC(=N2)N34)O1
IC50 [7]: 0.09 µM

SMILES: CN1C(=O)/C(=N\NC(=O)Cc2c[nH]c3ccccc23)c2ccccc21
IC50 [8]: 1.28 µM

SMILES: C/C=C(/C)C(=O)OC[C@H]1c2c(O)c(OC)c(C)c(OC(=O)/C=C/c3ccccc3)c2C[C@H]2[C@H]3C4=C(C[C@@H]([C@H](C#N)N12)N3C)C(=O)C(C)=C(OC)C4=O
IC50 [9]: 14.6 µM
IC50 [10]: 14.6 µM

SMILES: COc1cc2ccnc3c2c(c1O)N(C)C=C3 [ISOAAPTAMINE]
IC50 [11]: 30.1 µM

SMILES: C/C=C(/C)C(=O)OC[C@H]1c2c(c(O)c(C)c3c2OCO3)C[C@H]2[C@H]3C4=C(C[C@@H]([C@H](C#N)N12)N3C)C(=O)C(C)=C(OC)C4=O
IC50 [12]: 25 µM

SMILES: CCC/C=C\CC[C@@H](O)C[C@H]1CCC2=C(C(=O)OCCCCN(O)C(=N)N)[C@H](CC/C=C\CCC)NC(N)=[N+]21
IC50 [6]: 5 µM

IC50 [13]: 0.12 µM
IC50 [14]: 0.54 µM
SMILES: COC1=C(Br)[C@H](O)[C@](O)(CC#N)C=C1Br

SMILES: CC[C@@H]1C=CCC[C@]2(C[C@H]3CC[C@@]4(O)[C@@H](C(=O)OCCCCCCCCCCCCCCCC(=O)N(CCCN)C[C@@H](O)CCN)[C@@]5(CCC[C@H](C)O5)N=C(N2)N34)O1
IC50 [15]: 4.7 µM

SMILES: O=C1c2ccc(Br)cc2-[n+]2ccc3c([nH]c4cc(Br)ccc43)c21
IC50 [16]: 7.28 µM
IC50 [17]: 0.69 µM

SMILES: N=C(N)NCCCCNC(=O)[C@@]1(O)[C@H](Cc2c[nH]c3cc(Br)ccc23)[C@@](O)(Cc2c[nH]c3cc(Br)ccc23)C(=O)N1CCCCNC(=N)N [EUSYNSTYELAMIDE B]
IC50 [18]: 5 µM

SMILES: O=C(Cc1c[nH]c2ccccc12)N/N=C1\C(=O)Nc2ccc([N+](=O)[O-])cc21
IC50 [8]: 0.44 µM

SMILES: O=C1c2cccc(Cl)c2-[n+]2ccc3c([nH]c4ccccc43)c21
IC50 [19]: 0.3 µM

SMILES: CC[C@@H]1CCCC[C@]2(C[C@H]3CC[C@@]4(O)[C@@H](C(=O)OCCCCCCCCCCCCCCCCC(=O)N(CCCN)C[C@@H](O)CCN)[C@@]5(CCC[C@H](C)O5)N=C(N2)N34)O1
IC50 [15]: 4 µM
